Source: patent publication US6465457B1 (priority 1991, dated 2002)
Read-outs that look alike come from different tables or passages of the source.

Legend:
Format in all cases: in vivo
[1] = tested on: Erysiphe graminis tritici (Wheat); experiment: Foliar fungal disease test on plants: Erysiphe graminis tritici (Wheat); conditions: plants inoculated 24 hours before treatment
Description: (§1) The compounds were tested against a variety of foliar fungal diseases of plants. The technique employed was as follows.
(§2) The plants were grown in John Innes Potting Compost (No 1 or 2) in 4 cm diameter minipots. The test compounds were formulated either by bead milling with aqueous DISPERSOL T or as a solution in acetone or acetone/ethanol which was diluted to the required concentration immediately before use. […] The sprays were applied to maximum retention and the root drenches to a final concentration equivalent to approximately 40 ppm a.i. in dry soil. TWEEN 20 was added to give a final concentration of 0.05% when the sprays were applied to cereals.
(§3) For most of the tests the compounds were applied to the soil (roots) or to the foliage (by spraying) one or two days before the plant was inoculated with the disease. An exception was the test on Erysiphe graminis in which the plants were inoculated 24 hours before treatment. Foliar pathogens were applied by spray as zoosporangial suspensions onto the leaves of test plants. After inoculation, the plants were put into an appropriate environment to allow infection to proceed and then incubated until the disease was ready for assessment. The period between inoculation and assessment varied from four to fourteen days according to the disease and environment.
(§4) The disease level present (i.e. leaf area covered by actively sporulating disease) on each of the treated plants was recorded using the following assessment scale:
(§5) Each assessment was then expressed as a percentage of the level of disease present on the untreated control plants. This calculated value is referred to as a POCO (Percentage of Control) value. An example of a typical calculation is as follows:
(§6) Disease level on untreated control=90
(§7) Disese level on treated plant=30 [formula]
(§8) This calculated POCO value is then rounded to the nearest of the values in the 9-point assessment scale shown above. In this particular example, the POCO value would be rounded to 30. If the calculated POCO falls exactly mid-way between two of the points, it is rounded to the lower of the two values.

Septoria nodorum (Wheat) = experiment: Foliar fungal disease test on plants: Septoria nodorum (Wheat); conditions: one or two days before inoculation
Description: as §1, §2, §3, §4, §5, §6, §7, §8

[2] = tested on: Puccinia recondita (Wheat); experiment: Foliar fungal disease test on plants: Puccinia recondita (Wheat)
Description: as §1
The plants were grown in John Innes Potting Compost (No 1 or 2) in 4 cm diameter minipots. The test compounds were formulated either by bead milling with aqueous DISPERSOL T or as a solution in acetone or acetone/ethanol which was diluted to the required concentration immediately before use. The formulations (100 ppm active ingredient) were sprayed on to the foliage or applied to the roots of the plants in the soil. The sprays were applied to maximum retention and the root drenches to a final concentration equivalent to approximately 40 ppm a.i. in dry soil. TWEEN 20 was added to give a final concentration of 0.05% when the sprays were applied to cereals.
as §3, with “For most of the tests the compounds were applied to the soil (roots) or to the foliage (by spraying) one or two days before the plant was inoculated with the disease.” left out
as §4, §5, §6, §7, §8

[3] = tested on: Plasmopara viticola (Vines); experiment: Foliar fungal disease test on plants: Plasmopara viticola (Vines); conditions: one or two days before inoculation
Description: as §1, §2, §3, §4, §5, §6, §7, §8

[4] = tested on: Phytophthora infestans (Tomatoes); conditions: one or two days before inoculation
[5] = tested on: Pyricularia oryzae (Rice); conditions: 100 ppm a.i. foliar spray or root drench (approx. 40 ppm in dry soil), one or two days before inoculation
[6] = tested on: Venturia inaequalis (Apples); experiment: Foliar fungal disease test on plants: Venturia inaequalis (Apples); conditions: one or two days before inoculation
Description: as §1, §2, §3, §4, §5, §6, §7, §8

[7] = tested on: Thanatephorus cucumeries (Rice); experiment: Foliar fungal disease test on plants: Thanatephorus cucumeries (Rice); conditions: one or two days before inoculation
Description: as §1, §2, §3, §4, §5, §6, §7, §8

[8] = 100 ppm a.i. foliar spray or root drench (approx. 40 ppm in dry soil)
[9] = 100 ppm a.i. foliar spray or root drench, plants inoculated with Puccinia recondita 48 hours before treatment

Compound: C=CCNC(=O)OCc1ccccc1C(=COC)C(=O)OC [20 (1)]
- POCO (Percentage of Control) disease level, Erysiphe graminis tritici (Wheat) [1, 8]: 20 (20 and 24 = 10.1-20% disease present)
- POCO (Percentage of Control) disease level, Septoria nodorum (Wheat) (Septoria nodorum (Wheat); [8]): 90 (90 and 94 = 60.1-100% disease present)
- POCO (Percentage of Control) disease level, Puccinia recondita (Wheat) [2, 9]: 3+ (3 = 1.1-3% disease present)
- POCO (Percentage of Control) disease level, Plasmopara viticola (Vines) [3, 8]: 90 (90 and 94 = 60.1-100% disease present)
- POCO (Percentage of Control) disease level, Phytophthora infestans (Tomatoes) [4, 8]: 60 (60 = 30.1-60% disease present)
- POCO (Percentage of Control) disease level, Pyricularia oryzae (Rice) [5]: 20 (20 and 24 = 10.1-20% disease present)
- POCO (Percentage of Control) disease level, Venturia inaequalis (Apples) [6, 8]: 5 (5 = 3.1-5% disease present)
- POCO (Percentage of Control) disease level, Thanatephorus cucumeries (Rice) [7, 8]: 90 (90 and 94 = 60.1-100% disease present)

Compound: COC=C(C(=O)OC)c1ccccc1COC(=O)Nc1cccc(SC)c1 [10 (1)]
- POCO (Percentage of Control) disease level, Erysiphe graminis tritici (Wheat) ([1]; 10 ppm foliar spray only): 90 (90 and 94 = 60.1-100% disease present)
- POCO (Percentage of Control) disease level, Septoria nodorum (Wheat) (Septoria nodorum (Wheat); 10 ppm foliar spray only): 90 (90 and 94 = 60.1-100% disease present)
- POCO (Percentage of Control) disease level, Puccinia recondita (Wheat) ([2]; 10 ppm foliar spray only, plants inoculated with Puccinia recondita 48 hours before treatment): 90+ (90 and 94 = 60.1-100% disease present)
- POCO (Percentage of Control) disease level, Plasmopara viticola (Vines) ([3]; 10 ppm foliar spray only): 90 (90 and 94 = 60.1-100% disease present)
- POCO (Percentage of Control) disease level, Phytophthora infestans (Tomatoes) ([4]; 10 ppm foliar spray only): 90 (90 and 94 = 60.1-100% disease present)
- POCO (Percentage of Control) disease level, Venturia inaequalis (Apples) ([6]; 10 ppm foliar spray only): 0 (0 = 0% disease present)
- POCO (Percentage of Control) disease level, Thanatephorus cucumeries (Rice) ([7]; 10 ppm foliar spray only): 90 (90 and 94 = 60.1-100% disease present)

Compound: COC=C(C(=O)OC)c1ccccc1COC(=O)N(C)c1cccc([N+](=O)[O-])c1F [106 (2)]
- POCO (Percentage of Control) disease level, Erysiphe graminis tritici (Wheat) [1, 8]: 0 (0 = 0% disease present)
- POCO (Percentage of Control) disease level, Septoria nodorum (Wheat) (Septoria nodorum (Wheat); [8]): 30 (30 = 20.1-30% disease present)
- POCO (Percentage of Control) disease level, Puccinia recondita (Wheat) [2, 9]: 30+ (30 = 20.1-30% disease present)
- POCO (Percentage of Control) disease level, Plasmopara viticola (Vines) [3, 8]: 0 (0 = 0% disease present)
- POCO (Percentage of Control) disease level, Phytophthora infestans (Tomatoes) [4, 8]: 60 (60 = 30.1-60% disease present)
- POCO (Percentage of Control) disease level, Venturia inaequalis (Apples) [6, 8]: 0 (0 = 0% disease present)
- POCO (Percentage of Control) disease level, Thanatephorus cucumeries (Rice) [7, 8]: 0 (0 = 0% disease present)

Compound: CO/C=C(/Oc1ccccc1OC(=O)NC(=O)c1ccccc1)C(=O)OC [1 (17), (E)-methyl 2-[2-((benzoyl)carbamoyloxy)phenoxy]-3-methoxypropenoate]
- POCO (Percentage of Control) disease level, Erysiphe graminis tritici (Wheat) [1, 8]: 94 (90 and 94 = 60.1-100% disease present)
- POCO (Percentage of Control) disease level, Septoria nodorum (Wheat) (Septoria nodorum (Wheat); [8]): 94 (90 and 94 = 60.1-100% disease present)
- POCO (Percentage of Control) disease level, Puccinia recondita (Wheat) ([2]; 100 ppm a.i. foliar spray or root drench (approx. 40 ppm in dry soil), one or two days before inoculation): 24 (20 and 24 = 10.1-20% disease present)
- POCO (Percentage of Control) disease level, Plasmopara viticola (Vines) [3, 8]: 24 (20 and 24 = 10.1-20% disease present)
- POCO (Percentage of Control) disease level, Phytophthora infestans (Tomatoes) [4, 8]: 24 (20 and 24 = 10.1-20% disease present)
- POCO (Percentage of Control) disease level, Pyricularia oryzae (Rice) [5]: 94 (90 and 94 = 60.1-100% disease present)
- POCO (Percentage of Control) disease level, Venturia inaequalis (Apples) [6, 8]: 0 (0 = 0% disease present)

Compound: CCN(C(=O)OCc1ccccc1C(=COC)C(=O)OC)c1ccc(F)c(Cl)c1 [104 (3)]
- POCO (Percentage of Control) disease level, Erysiphe graminis tritici (Wheat) [1, 8]: 0 (0 = 0% disease present)
- POCO (Percentage of Control) disease level, Septoria nodorum (Wheat) (Septoria nodorum (Wheat); [8]): 10 (10 = 5.1-10% disease present)
- POCO (Percentage of Control) disease level, Puccinia recondita (Wheat) [2, 9]: 0+ (0 = 0% disease present)
- POCO (Percentage of Control) disease level, Plasmopara viticola (Vines) [3, 8]: 0 (0 = 0% disease present)
- POCO (Percentage of Control) disease level, Phytophthora infestans (Tomatoes) [4, 8]: 10 (10 = 5.1-10% disease present)
- POCO (Percentage of Control) disease level, Venturia inaequalis (Apples) [6, 8]: 0 (0 = 0% disease present)
- POCO (Percentage of Control) disease level, Thanatephorus cucumeries (Rice) [7, 8]: 0 (0 = 0% disease present)
